Reference: PubChem BioAssay (NCI)
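In this assay, cells in 96-well plates receive the compound at five concentrations for 48 hours. Endpoints are linearly interpolated between the surrounding concentrations. The concentration for full growth arrest is given as TGI.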

Key:
Test in all cases: NCI anticancer screen, dose series, 48 h
UO-31 renal = tested on: UO-31 renal
DU-145 prostate = tested on: DU-145 prostate
KM12 colon = tested on: KM12 colon
HCT-116 colon = tested on: HCT-116 colon
PC-3 prostate = tested on: PC-3 prostate
OVCAR-5 ovarian = tested on: OVCAR-5 ovarian
SF-295 CNS = tested on: SF-295 CNS
EKVX NSCLC = tested on: EKVX NSCLC
A549 NSCLC = tested on: A549 NSCLC
SK-MEL-5 melanoma = tested on: SK-MEL-5 melanoma
BT-549 breast = tested on: BT-549 breast
SK-OV-3 ovarian = tested on: SK-OV-3 ovarian
M14 melanoma = tested on: M14 melanoma
MCF7 breast = tested on: MCF7 breast
CAKI-1 renal = tested on: CAKI-1 renal
NCI-H23 lung = tested on: NCI-H23 lung
HOP-92 NSCLC = tested on: HOP-92 NSCLC
SK-MEL-2 melanoma = tested on: SK-MEL-2 melanoma
T-47D breast = tested on: T-47D breast

Row | SMILES | TGI (UO-31 renal) | TGI (DU-145 prostate) | TGI (KM12 colon) | TGI (HCT-116 colon) | TGI (PC-3 prostate) | TGI (OVCAR-5 ovarian) | TGI (SF-295 CNS) | TGI (EKVX NSCLC) | TGI (A549 NSCLC) | TGI (SK-MEL-5 melanoma) | TGI (BT-549 breast) | TGI (SK-OV-3 ovarian) | TGI (M14 melanoma) | TGI (MCF7 breast) | TGI (CAKI-1 renal) | TGI (NCI-H23 lung) | TGI (HOP-92 NSCLC) | TGI (SK-MEL-2 melanoma) | TGI (T-47D breast)
1 | CC[C@]1(Cc2ccc(OC)c(OC)c2)C=[N+]([O-])O[C@H](OC2CCCCC2c2ccccc2)[C@@H]1OC(C)=O (stereo partly drawn) | > 100 µM | > 100 µM | > 100 µM | > 100 µM | > 100 µM | > 100 µM | > 100 µM | > 100 µM | > 100 µM | > 100 µM | > 100 µM | > 100 µM | > 100 µM | > 100 µM | 56.8 µM | > 100 µM | > 100 µM | > 100 µM | > 100 µM
2 | N=C1/C(=C/c2ccco2)C(=O)N=C2SC=NN12 | > 100 µM | > 100 µM | > 100 µM | > 100 µM | > 100 µM | > 100 µM | > 100 µM | > 100 µM | > 100 µM | > 100 µM | > 100 µM | > 100 µM | > 100 µM | > 100 µM | > 100 µM | > 100 µM | > 100 µM | > 100 µM | > 100 µM
